Molecular target: Hypoxanthine-guanine phosphoribosyltransferase (Trypanosoma cruzi)
Test: Inhibition of hypoxanthine-guanine phosphoribosyltransferase (TcHPRT)

Ki: 126 µM
Compound: CN(C)CCC(O)(P(=O)(O)O)P(=O)(O)O [hydrogen 3-(dimethylammonio)-1-hydroxy-1-(hydroxyphosphinato)propylphosphonate]

Source: BindingDB's records for doi:10.1016/j.bmcl.2004.06.042 (Universidad De Buenos Aires, 2004)
